Values of other authors as cited in patent US20160165928A1, “METHODS OF REDUCING METHANE EMISSION DERIVED FROM RUMINAL FERMENTATION WHILE SIMULTANEOUSLY REDUCING RISK OF NITRATE INTOXICATION” (Grasp Indústria e Comércio Ltda., priority 2011, published 2016).

Columns and labels:
[1] = tested on: methane produced by rumen fermentation; conditions: in vivo
[2] = tested on: ruminal accumulation of nitrite; conditions: in vivo

Compound	methane emission in ruminants [1]	ruminal accumulation of nitrite [2]	also measured
O=[N+]([O-])[O-].O=[N+]([O-])[O-].[Ca+2] [calcium nitrate]	reduced methane emission	–	–
O=S(=O)([O-])[O-].[Cu+2] [copper sulfate]	–	reduction of ruminal accumulation of nitrite	intoxication risks [2]: minimization of intoxication risks
O=S(=O)([O-])[O-].[Mg+2] [magnesium sulfate]	–	reduction of ruminal accumulation of nitrite	–
O=[N+]([O-])[O-].[K+] [potassium nitrate]	reduced methane emission	–	–
O=[N+]([O-])[O-].[Na+] [sodium nitrate]	reduced methane emission	–	–
O=S(=O)([O-])[O-].[Na+].[Na+] [sodium sulfate]	–	reduction of ruminal accumulation of nitrite	–
[Na+].[Na+].[O]=[W](=[O])([O-])[O-] [sodium tungstate]	–	–	inhibition of nitrate reductase (nitrate reductase): inhibit nitrate reductase
